Tests used:
SV40-Luc = SV40-Luc control luciferase reporter assay, SV 5A8 cell line (SV40-Luc and SV40-R-Luc), control for non-specific inhibitors; type: cell-based, human; settings: SV 5A8 cells derived from SW480, 24 hours of incubation with compound, ratio Firefly/Renilla luciferase
Summary of the method: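 Cells were plated and, 20-24 hours later, treated with titrated compound (0.316% DMSO final). After 24 hours they were lysed or given Dual-Glo reagent, and firefly then Renilla luminescence was measured. IC50s came from firefly/Renilla ratios as % of control.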

β-catenin/Tcf-4 = test: cells; type: cell-based; settings: 24 hours of incubation with compound, ratio Firefly/Renilla luciferase
Summary of the method: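 SW480-derived lines with integrated reporters (Tcf-4-driven firefly luciferase; SV40 firefly as specificity control; SV40 Renilla for cell number/toxicity), treated 24 hours with titrated compounds, final 0.316% DMSO. Dual-luciferase read-out; firefly/Renilla ratio as % of control, duplicate plates, IC50 (nM) from curve fit.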

[1] = Homo sapiens, SW480, 24 h, Tcf 33.13 cells derived from SW480
[2] = Homo sapiens, Tcf22C11, 24 h, Tcf 22C11 cells derived from SW480

| IC50 (SV40-Luc; Homo sapiens, SV5A8, 24 h) [nM] | IC50 (β-catenin/Tcf-4; [1]) [nM] | IC50 (β-catenin/Tcf-4; [2]) [nM] | IC50 (SV40-Luc) [nM] | IC50 (β-catenin/Tcf-4; Tcf 22C11 cells derived from SW480) [nM] | IC50 (β-catenin/Tcf-4; Tcf 33.13 cells derived from SW480) [nM] | Compound |
| --- | --- | --- | --- | --- | --- | --- |
| > 2390 | 382 | 376 |  |  |  | Cc1ccc2c(NCc3ccc(NC(=O)c4ccc(Cl)cc4)cc3)nc(NCCc3ccccn3)nc2c1 [Example 197, 4-chloro-N-{4-[({7-methyl-2-[(2-pyridin-2-ylethyl)amino]quinazolin-4-yl}amino)methyl]phenyl}benzamide] |
| 1520 | 1070 | 888 |  |  |  | CNc1nc(NCc2ccc(NC(=O)c3ccc(Cl)nc3)cc2)c2cc(OC)c(OC)cc2n1 [Example 9, 6-chloro-N-[4-({[6,7-dimethoxy-2-(methylamino)quinazolin-4-yl]amino}methyl)phenyl]nicotinamide] |
| > 23900 | > 2980 | > 2980 |  |  |  | CNc1nc(NCc2ccc(NC(=O)c3cccnc3Cl)cc2)c2ccccc2n1 [Example 7, 2-chloro-N-[4-({[2-(methylamino)quinazolin-4-yl]amino}methyl)phenyl]nicotinamide] |
| > 7140 | > 3570 | > 7140 |  |  |  | O=C(Nc1ccc(CNc2nc(N3CCN(c4ncccn4)CC3)nc3ccc(C(F)(F)F)cc23)cc1)C1CCN(Cc2ccc(F)cc2)CC1 [Example 157, 1-(4-fluorobenzyl)-N-[4-({[2-(4-pyrimidin-2-ylpiperazin-1-yl)-6-(trifluoromethyl)quinazolin-4-yl]amino}methyl)phenyl]piperidine-4-carboxamide] |
| > 4050 | 425 | 511 |  |  |  | Cc1ccc2nc(N3CCC(N4CCCC4)CC3)nc(NCc3ccc(NC(=O)C4CCN(Cc5ccccc5)CC4)cc3)c2c1 [Example 83, 1-benzyl-N-[4-({[6-methyl-2-(4-pyrrolidin-1-ylpiperidin-1-yl)quinazolin-4-yl]amino}methyl)phenyl]piperidine-4-carboxamide] |
|  |  |  | > 5010 | > 1250 | 1490 | N-{4-[({6,8-dimethyl-2-[(3S)-3-methylpiperazin-1-yl]quinazolin-4-yl}amino)methyl]phenyl}-4-fluorobenzamide [Example 50] |
| > 5820 | 1870 | 2100 |  |  |  | CNc1nc(NCc2ccc(NC(=O)c3ccc(F)cc3)cc2)c2cc(C)cc(C)c2n1 [Example 30, N-[4-({[6,8-dimethyl-2-(methylamino)quinazolin-4-yl]amino}methyl)phenyl]-4-fluorobenzamide] |
| > 17800 | > 8920 | > 8920 |  |  |  | Cc1ccc2nc(NCc3ccco3)nc(NCc3ccc(NC(=O)C4CCN(Cc5ccccc5)CC4)cc3)c2c1 [Example 81, 1-benzyl-N-{4-[({2-[(2-furylmethyl)amino]-6-methylquinazolin-4-yl}amino)methyl]phenyl}piperidine-4-carboxamide] |
| > 3010 | 766 | 1490 |  |  |  | CN(C)c1nc(NCc2ccc(NC(=O)c3ccc(F)cc3)cc2)c2ccccc2n1 [Example 113, N-[4-({[2-(dimethylamino)quinazolin-4-yl]amino}methyl)phenyl]-4-fluorobenzamide] |
| > 5370 | 402 | 526 |  |  |  | CNc1nc(NCc2ccc(NC(=O)c3ccc(C(F)(F)F)cc3)cc2)c2cc(C)ccc2n1 [Example 27, N-[4-({[6-methyl-2-(methylamino)quinazolin-4-yl]amino}methyl)phenyl]-4-(trifluoromethyl)benzamide] |
| > 10500 | 1170 | 1480 |  |  |  | CCCCN1CCC(C(=O)Nc2ccc(CNc3nc(N(C)C)nc4cc(C)ccc34)cc2)CC1 [Example 249, 1-butyl-N-[4-({[2-(dimethylamino)-7-methylquinazolin-4-yl]amino}methyl)phenyl]piperidine-4-carboxamide] |
| > 2830 | 1270 | 1740 |  |  |  | O=C(Nc1ccc(CNc2nc(N3CCCC3)nc3ccccc23)cc1)c1ccc(F)cc1 [Example 119, 4-fluoro-N-(4-{[(2-pyrrolidin-1-ylquinazolin-4-yl)amino]methyl}phenyl)benzamide] |
| > 10500 | 962 | 650 |  |  |  | Cc1ccc2c(NCc3ccc(NC(=O)C4CCN(CC(C)C)CC4)cc3)nc(N(C)C)nc2c1 [Example 244, N-[4-({[2-(dimethylamino)-7-methylquinazolin-4-yl]amino}methyl)phenyl]-1-isobutylpiperidine-4-carboxamide] |
| > 9890 | 579 | 590 |  |  |  | Cc1ccc2c(NCc3ccc(NC(=O)c4ccc(F)cc4)cc3)nc(N(C)Cc3ccccc3)nc2c1 [Example 203, N-{4-[({2-[benzyl(methyl)amino]-7-methylquinazolin-4-yl}amino)methyl]phenyl}-4-fluorobenzamide] |
| > 7870 | 203 | 215 |  |  |  | Cc1ccc2c(NCc3ccc(NC(=O)C4CCN(Cc5c(F)cc(F)cc5F)CC4)cc3)nc(N(C)C)nc2c1 [Example 260, N-[4-({[2-(dimethylamino)-7-methylquinazolin-4-yl]amino}methyl)phenyl]-1-(2,4,6-trifluorobenzyl)piperidine-4-carboxamide] |
| > 17700 | 541 | 548 |  |  |  | CN(C)c1nc(NCc2ccc(NC(=O)c3ccc(F)cc3)cc2)c2ccc(-c3cccnc3Cl)cc2n1 [Example 100, N-[4-({[7-(2-chloropyridin-3-yl)-2-(dimethylamino)quinazolin-4-yl]amino}methyl)phenyl]-4-fluorobenzamide] |
| > 4620 | 2320 | 2190 |  |  |  | Cc1ccc2c(NCc3ccc(NC(=O)c4ccc(F)cc4)cc3)nc(NCCCN3CCN(C)CC3)nc2c1 [Example 229, 4-fluoro-N-(4-{[(7-methyl-2-{[3-(4-methylpiperazin-1-yl)propyl]amino}quinazolin-4-yl)amino]methyl}phenyl)benzamide] |
| > 14600 | 1420 | 1800 |  |  |  | Cc1ccc2c(NCc3ccc(NC(=O)c4ccc(F)cc4)cc3)nc(N3CCN(CC(=O)NC(C)C)CC3)nc2c1 [Example 219, 4-fluoro-N-(4-{[(2-{4-[2-(isopropylamino)-2-oxoethyl]piperazin-1-yl}-7-methylquinazolin-4-yl)amino]methyl}phenyl)benzamide] |
| > 2540 | 666 | 1010 |  |  |  | CN(C)c1nc(NCc2ccc(NC(=O)c3ccc(F)cc3)cc2)c2ccc(C3CC3)cc2n1 [Example 104, N-[4-({[7-cyclopropyl-2-(dimethylamino)quinazolin-4-yl]amino}methyl)phenyl]-4-fluorobenzamide] |
| > 24100 | 12800 | 12000 |  |  |  | CNc1nc(NCc2ccc(NC(=O)c3ccccc3F)cc2)c2cc(C)ccc2n1 [Example 47, 2-fluoro-N-[4-({[6-methyl-2-(methylamino)quinazolin-4-yl]amino}methyl)phenyl]benzamide] |
| > 9310 | 423 | 434 |  |  |  | Cc1ccc2nc(N3CCC3)nc(NCc3ccc(NC(=O)C4CCN(Cc5ccccc5)CC4)cc3)c2c1 [Example 84, N-(4-{[(2-azetidin-1-yl-6-methylquinazolin-4-yl)amino]methyl}phenyl)-1-benzylpiperidine-4-carboxamide] |
| > 5590 | 866 | 1170 |  |  |  | Cc1ccc2nc(N(C)C)nc(NCc3ccc(NC(=O)c4ccc(F)c(F)c4)cc3)c2c1 [Example 36, N-[4-({[2-(dimethylamino)-6-methylquinazolin-4-yl]amino}methyl)phenyl]-3,4-difluorobenzamide] |

Reference: patent publication US20090004185A1, “AMINO-SUBSTITUTED QUINAZOLINE DERIVATIVES AS INHIBITORS OF BETA-CATENIN/TCF-4 PATHWAY AND CANCER TREATMENT AGENTS” (WYETH, priority 2007, published 2009)
